According to US11377442B2, “Small molecule agonists and antagonists of NR2F6 activity” (ZANDER THERAPEUTICS, INC., priority 2016, dated 2022):
Like-named read-outs stand apart in the source and are kept apart here.

Tests used:
Assay type in all cases: cell-based
NR2F6 = target: T1, NR2F6 (Homo sapiens, UniProt P10588); test: NR2F6 agonist screening, Firefly signal cmpd/DMSO
T1 construct: expressed in transfected cells; also transient transfection
T1 sequence (P10588 1-404): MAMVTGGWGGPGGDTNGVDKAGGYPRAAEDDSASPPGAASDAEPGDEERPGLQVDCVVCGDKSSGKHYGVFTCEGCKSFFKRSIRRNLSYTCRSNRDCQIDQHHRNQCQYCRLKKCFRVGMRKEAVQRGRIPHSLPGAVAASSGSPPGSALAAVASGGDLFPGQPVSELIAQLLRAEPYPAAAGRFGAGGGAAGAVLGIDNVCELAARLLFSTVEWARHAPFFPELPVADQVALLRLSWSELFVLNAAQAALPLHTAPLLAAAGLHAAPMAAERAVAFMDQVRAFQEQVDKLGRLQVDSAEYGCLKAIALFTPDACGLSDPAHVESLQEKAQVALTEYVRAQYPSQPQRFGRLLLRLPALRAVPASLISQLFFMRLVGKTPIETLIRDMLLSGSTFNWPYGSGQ

Renilla = Renilla signal in NR2F6 agonist screening, cmpd/DMSO; conditions: Renilla, F4
HEK293 pGL4 = test: Firefly_pGL signal, cmpd/DMSO (pGL4 control cells); conditions: Homo sapiens
NR2F6 LBD = target: T2, NR2F6 LBD (Homo sapiens, UniProt P10588); test: NR2F6 LBD transient transfection; conditions: LBD
T2 construct: expressed in transfected cells
T2 sequence (P10588 165-393 limits assumed): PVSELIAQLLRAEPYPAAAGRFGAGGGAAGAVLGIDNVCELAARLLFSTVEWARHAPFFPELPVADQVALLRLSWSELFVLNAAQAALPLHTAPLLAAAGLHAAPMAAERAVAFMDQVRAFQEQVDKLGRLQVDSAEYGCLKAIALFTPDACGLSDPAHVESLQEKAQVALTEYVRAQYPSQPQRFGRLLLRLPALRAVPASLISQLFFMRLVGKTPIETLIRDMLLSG
Protocol: FIGS. 27A and 27B show NR2F6 and LBD transient transfection, respectively, for Compound D28. Higher concentrations were excluded due to lower signal (tox effect). FIGS. 27C and 27D show NR2F6 and LBD transient transfection at different concentrations for different compounds. 9 compounds were tested on LBD transfected cells (40, 10, 2 and 0.5 μM, 4 replicates). FIGS. 27E and 27F show toxicity of Compound D28. 9 compounds were tested for cytotoxicity on LBD transfected cells (40, 10, 2 and 0.5 μM, 4 replicates). […] Cytotoxicity normalized to DMSO is shown in FIG. 27F (0% cytotoxicity corresponds to DMSO signal, 100%—zero signal).
FIGS. 34A and 34B show NR2F6 LBD transient transfection for Compound E21. 9 compounds were tested on LBD transfected cells (40, 10, 2 and 0.5 μM, 4 replicates). FIGS. 34C and 34D show NR2F6 and LBD transient transfection at different concentrations for different compounds. 9 compounds were tested on LBD transfected cells (40, 10, 2 and 0.5 μM, 4 replicates). […] Cytotoxicity normalized to DMSO is shown in FIG. 34D (0% cytotoxicity corresponds to DMSO signal, 100%—zero signal). All compounds were tested at 5, 10, 25 and 50 uM in duplicates. Dog PBMC (1×10^6 cells/mL) were activated by 10 ng/mL PMA+500 ng/mL ionomycin. Data were normalized to controls with (100%)/without (0%) PMA+ionomycin activation.
FIGS. 39A and 39B show NR2F6 LBD transient transfection for Compound F1. 9 compounds were tested on LBD transfected cells (40, 10, 2 and 0.5 μM, 4 replicates). FIGS. 39C and 39D show toxicity of NR2F6 LBD transient transfection. 9 compounds were tested for cytotoxicity on LBD transfected cells (40, 10, 2 and 0.5 μM, 4 replicates). Tox effect causes lower signal compared to DMSO. Cytotoxicity normalized to DMSO is shown in FIG. 39D (0% cytotoxicity corresponds to DMSO signal, 100%—zero signal).

[1] = read-out: Renilla, F4, cmpd/DMSO (mean)
[2] = 1% FBS, read-out: Renilla, F4, 1% FBS, cmpd/DMSO (mean)
[3] = 10% FBS, read-out: Renilla, F4, 10% FBS, cmpd/DMSO (mean)
[4] = HEK293, 0.5 uM, pGL4, read-out: Firefly pGL4, cmpd/DMSO (mean)
[5] = HEK293, 2 uM, pGL4, read-out: Firefly pGL4, cmpd/DMSO (mean)
[6] = HEK293, 10 uM, pGL4, read-out: Firefly pGL4, cmpd/DMSO (mean)
[7] = HEK293, 40 uM, pGL4, read-out: Firefly pGL4, cmpd/DMSO (mean)
[8] = HEK293, pGL4, 1% FBS, 0.5 uM, read-out: Firefly, pGL4, 1% FBS, cmpd/DMSO (mean)
[9] = HEK293, pGL4, 1% FBS, 2 uM, read-out: Firefly, pGL4, 1% FBS, cmpd/DMSO (mean)
[10] = HEK293, pGL4, 1% FBS, 10 uM, read-out: Firefly, pGL4, 1% FBS, cmpd/DMSO (mean)
[11] = HEK293, pGL4, 1% FBS, 40 uM, read-out: Firefly, pGL4, 1% FBS, cmpd/DMSO (mean)
[12] = HEK293, pGL4, 10% FBS, 0.5 uM, read-out: Firefly, pGL4, 10% FBS, cmpd/DMSO (mean)
[13] = HEK293, pGL4, 10% FBS, 2 uM, read-out: Firefly, pGL4, 10% FBS, cmpd/DMSO (mean)
[14] = HEK293, pGL4, 10% FBS, 10 uM, read-out: Firefly, pGL4, 10% FBS, cmpd/DMSO (mean)
[15] = HEK293, pGL4, 10% FBS, 40 uM, read-out: Firefly, pGL4, 10% FBS, cmpd/DMSO (mean)

## O=S1(=O)C[C@H](NC2CCCC2)[C@@H](S(=O)(=O)c2ccc(F)cc2)C1 [Compound D114]
NR2F6; 0.5 uM
  Firefly F4, cmpd/DMSO (mean): 1.6
  Firefly, F4, 1% FBS, cmpd/DMSO (mean): 1.3
NR2F6; 2 uM
  Firefly F4, cmpd/DMSO (mean): 1.6
  Firefly, F4, 1% FBS, cmpd/DMSO (mean): 1.0
NR2F6; 10 uM
  Firefly F4, cmpd/DMSO (mean): 2.4
  Firefly, F4, 1% FBS, cmpd/DMSO (mean): 1.8
NR2F6; 40 uM
  Firefly F4, cmpd/DMSO (mean): 3.6
  Firefly, F4, 1% FBS, cmpd/DMSO (mean): 2.2
NR2F6; 10% FBS, 40 uM
  F4, Firefly/Renilla for S/B(F4) > 3: 2.1
  Firefly, F4/pGL4 for S/B(F4) > 3: 1.6
  Firefly, F4, 10% FBS, cmpd/DMSO (mean): 3.2
NR2F6; 10% FBS, 0.5 uM
  Firefly, F4, 10% FBS, cmpd/DMSO (mean): 1.2
NR2F6; 10% FBS, 2 uM
  Firefly, F4, 10% FBS, cmpd/DMSO (mean): 1.1
NR2F6; 10% FBS, 10 uM
  Firefly, F4, 10% FBS, cmpd/DMSO (mean): 1.7
Renilla; [1]
  fold induction at 0.5 µM: 1
  fold induction at 2 µM: 1.1
  fold induction at 10 µM: 1.2
  fold induction at 40 µM: 1.3
Renilla; [2]
  fold induction at 0.5 µM: 1.1
  fold induction at 2 µM: 1.2
  fold induction at 10 µM: 1.7
  fold induction at 40 µM: 1.8
Renilla; [3]
  fold induction at 0.5 µM: 0.9
  fold induction at 2 µM: 1
  fold induction at 10 µM: 1.1
  fold induction at 40 µM: 1.5
HEK293 pGL4; [4]
  fold induction at 0.5 µM: 1.1
HEK293 pGL4; [5]
  fold induction at 2 µM: 1.3
HEK293 pGL4; [6]
  fold induction at 10 µM: 2
HEK293 pGL4; [7]
  fold induction at 40 µM: 2
HEK293 pGL4; [8]
  fold induction at 0.5 µM: 1.1
HEK293 pGL4; [9]
  fold induction at 2 µM: 1.3
HEK293 pGL4; [10]
  fold induction at 10 µM: 1.7
HEK293 pGL4; [11]
  fold induction at 40 µM: 1.5
HEK293 pGL4; [12]
  fold induction at 0.5 µM: 1.3
HEK293 pGL4; [13]
  fold induction at 2 µM: 1.3
HEK293 pGL4; [14]
  fold induction at 10 µM: 1.5
HEK293 pGL4; [15]
  fold induction at 40 µM: 2
NR2F6 LBD; 0.5 uM
  Firefly LBD, cmpd/DMSO (mean): 1.1
NR2F6 LBD; 2 uM
  Firefly LBD, cmpd/DMSO (mean): 1.3
NR2F6 LBD; 10 uM
  Firefly LBD, cmpd/DMSO (mean): 1.9
NR2F6 LBD; 40 uM
  Firefly LBD, cmpd/DMSO (mean): 2.2

## Cc1cc(S(=O)(=O)[C@H]2CS(=O)(=O)C[C@@H]2NCC2CCCO2)ccc1F (stereo partly shown) [Compound D115]
NR2F6; 0.5 uM
  Firefly F4, cmpd/DMSO (mean): 1.0
  Firefly, F4, 1% FBS, cmpd/DMSO (mean): 1.0
NR2F6; 2 uM
  Firefly F4, cmpd/DMSO (mean): 1.1
  Firefly, F4, 1% FBS, cmpd/DMSO (mean): 0.8
NR2F6; 10 uM
  Firefly F4, cmpd/DMSO (mean): 1.4
  Firefly, F4, 1% FBS, cmpd/DMSO (mean): 1.1
NR2F6; 40 uM
  Firefly F4, cmpd/DMSO (mean): 2.2
  Firefly, F4, 1% FBS, cmpd/DMSO (mean): 1.8
NR2F6; 10% FBS, 0.5 uM
  Firefly, F4, 10% FBS, cmpd/DMSO (mean): 1.5
NR2F6; 10% FBS, 2 uM
  Firefly, F4, 10% FBS, cmpd/DMSO (mean): 1.3
NR2F6; 10% FBS, 10 uM
  Firefly, F4, 10% FBS, cmpd/DMSO (mean): 0.7
NR2F6; 10% FBS, 40 uM
  Firefly, F4, 10% FBS, cmpd/DMSO (mean): 1.3
Renilla; [1]
  fold induction at 0.5 µM: 1
  fold induction at 2 µM: 1
  fold induction at 10 µM: 1
  fold induction at 40 µM: 1.1
Renilla; [2]
  fold induction at 0.5 µM: 1.1
  fold induction at 2 µM: 1
  fold induction at 10 µM: 1.2
  fold induction at 40 µM: 1.5
Renilla; [3]
  fold induction at 0.5 µM: 1
  fold induction at 2 µM: 1
  fold induction at 10 µM: 1.1
  fold induction at 40 µM: 1.3
HEK293 pGL4; [4]
  fold induction at 0.5 µM: 1.2
HEK293 pGL4; [5]
  fold induction at 2 µM: 1.2
HEK293 pGL4; [6]
  fold induction at 10 µM: 1.3
HEK293 pGL4; [7]
  fold induction at 40 µM: 2
HEK293 pGL4; [8]
  fold induction at 0.5 µM: 1.1
HEK293 pGL4; [9]
  fold induction at 2 µM: 1.2
HEK293 pGL4; [10]
  fold induction at 10 µM: 1.2
HEK293 pGL4; [11]
  fold induction at 40 µM: 1.6
HEK293 pGL4; [12]
  fold induction at 0.5 µM: 1.2
HEK293 pGL4; [13]
  fold induction at 2 µM: 1.2
HEK293 pGL4; [14]
  fold induction at 10 µM: 1.6
HEK293 pGL4; [15]
  fold induction at 40 µM: 2.1
NR2F6 LBD; 0.5 uM
  Firefly LBD, cmpd/DMSO (mean): 0.9
NR2F6 LBD; 2 uM
  Firefly LBD, cmpd/DMSO (mean): 0.9
NR2F6 LBD; 10 uM
  Firefly LBD, cmpd/DMSO (mean): 1.3
NR2F6 LBD; 40 uM
  Firefly LBD, cmpd/DMSO (mean): 2.2
